Measurements published in ChEMBL document CHEMBL6127013, “A chemical platform for the efficient screening of arylazopyrazole-based photoswitchable CENP-E inhibitors using mild cyclization reactions” (Bioorg Med Chem Lett, 2024).
The source made the active and inactive calls. The rule behind the calls is not given here.

Key:
HeLa = assay: Antiproliferative activity against human HeLa cells assessed as inhibition of cell proliferation; format: functional, cell-based
[1] = target: T1, Centromere-associated protein E (Homo sapiens, UniProt Q02224); assay: Inhibition of CENP-E (unknown origin) ATPase activity in absence of light illumination
T1 sequence (Q02224 whole entry): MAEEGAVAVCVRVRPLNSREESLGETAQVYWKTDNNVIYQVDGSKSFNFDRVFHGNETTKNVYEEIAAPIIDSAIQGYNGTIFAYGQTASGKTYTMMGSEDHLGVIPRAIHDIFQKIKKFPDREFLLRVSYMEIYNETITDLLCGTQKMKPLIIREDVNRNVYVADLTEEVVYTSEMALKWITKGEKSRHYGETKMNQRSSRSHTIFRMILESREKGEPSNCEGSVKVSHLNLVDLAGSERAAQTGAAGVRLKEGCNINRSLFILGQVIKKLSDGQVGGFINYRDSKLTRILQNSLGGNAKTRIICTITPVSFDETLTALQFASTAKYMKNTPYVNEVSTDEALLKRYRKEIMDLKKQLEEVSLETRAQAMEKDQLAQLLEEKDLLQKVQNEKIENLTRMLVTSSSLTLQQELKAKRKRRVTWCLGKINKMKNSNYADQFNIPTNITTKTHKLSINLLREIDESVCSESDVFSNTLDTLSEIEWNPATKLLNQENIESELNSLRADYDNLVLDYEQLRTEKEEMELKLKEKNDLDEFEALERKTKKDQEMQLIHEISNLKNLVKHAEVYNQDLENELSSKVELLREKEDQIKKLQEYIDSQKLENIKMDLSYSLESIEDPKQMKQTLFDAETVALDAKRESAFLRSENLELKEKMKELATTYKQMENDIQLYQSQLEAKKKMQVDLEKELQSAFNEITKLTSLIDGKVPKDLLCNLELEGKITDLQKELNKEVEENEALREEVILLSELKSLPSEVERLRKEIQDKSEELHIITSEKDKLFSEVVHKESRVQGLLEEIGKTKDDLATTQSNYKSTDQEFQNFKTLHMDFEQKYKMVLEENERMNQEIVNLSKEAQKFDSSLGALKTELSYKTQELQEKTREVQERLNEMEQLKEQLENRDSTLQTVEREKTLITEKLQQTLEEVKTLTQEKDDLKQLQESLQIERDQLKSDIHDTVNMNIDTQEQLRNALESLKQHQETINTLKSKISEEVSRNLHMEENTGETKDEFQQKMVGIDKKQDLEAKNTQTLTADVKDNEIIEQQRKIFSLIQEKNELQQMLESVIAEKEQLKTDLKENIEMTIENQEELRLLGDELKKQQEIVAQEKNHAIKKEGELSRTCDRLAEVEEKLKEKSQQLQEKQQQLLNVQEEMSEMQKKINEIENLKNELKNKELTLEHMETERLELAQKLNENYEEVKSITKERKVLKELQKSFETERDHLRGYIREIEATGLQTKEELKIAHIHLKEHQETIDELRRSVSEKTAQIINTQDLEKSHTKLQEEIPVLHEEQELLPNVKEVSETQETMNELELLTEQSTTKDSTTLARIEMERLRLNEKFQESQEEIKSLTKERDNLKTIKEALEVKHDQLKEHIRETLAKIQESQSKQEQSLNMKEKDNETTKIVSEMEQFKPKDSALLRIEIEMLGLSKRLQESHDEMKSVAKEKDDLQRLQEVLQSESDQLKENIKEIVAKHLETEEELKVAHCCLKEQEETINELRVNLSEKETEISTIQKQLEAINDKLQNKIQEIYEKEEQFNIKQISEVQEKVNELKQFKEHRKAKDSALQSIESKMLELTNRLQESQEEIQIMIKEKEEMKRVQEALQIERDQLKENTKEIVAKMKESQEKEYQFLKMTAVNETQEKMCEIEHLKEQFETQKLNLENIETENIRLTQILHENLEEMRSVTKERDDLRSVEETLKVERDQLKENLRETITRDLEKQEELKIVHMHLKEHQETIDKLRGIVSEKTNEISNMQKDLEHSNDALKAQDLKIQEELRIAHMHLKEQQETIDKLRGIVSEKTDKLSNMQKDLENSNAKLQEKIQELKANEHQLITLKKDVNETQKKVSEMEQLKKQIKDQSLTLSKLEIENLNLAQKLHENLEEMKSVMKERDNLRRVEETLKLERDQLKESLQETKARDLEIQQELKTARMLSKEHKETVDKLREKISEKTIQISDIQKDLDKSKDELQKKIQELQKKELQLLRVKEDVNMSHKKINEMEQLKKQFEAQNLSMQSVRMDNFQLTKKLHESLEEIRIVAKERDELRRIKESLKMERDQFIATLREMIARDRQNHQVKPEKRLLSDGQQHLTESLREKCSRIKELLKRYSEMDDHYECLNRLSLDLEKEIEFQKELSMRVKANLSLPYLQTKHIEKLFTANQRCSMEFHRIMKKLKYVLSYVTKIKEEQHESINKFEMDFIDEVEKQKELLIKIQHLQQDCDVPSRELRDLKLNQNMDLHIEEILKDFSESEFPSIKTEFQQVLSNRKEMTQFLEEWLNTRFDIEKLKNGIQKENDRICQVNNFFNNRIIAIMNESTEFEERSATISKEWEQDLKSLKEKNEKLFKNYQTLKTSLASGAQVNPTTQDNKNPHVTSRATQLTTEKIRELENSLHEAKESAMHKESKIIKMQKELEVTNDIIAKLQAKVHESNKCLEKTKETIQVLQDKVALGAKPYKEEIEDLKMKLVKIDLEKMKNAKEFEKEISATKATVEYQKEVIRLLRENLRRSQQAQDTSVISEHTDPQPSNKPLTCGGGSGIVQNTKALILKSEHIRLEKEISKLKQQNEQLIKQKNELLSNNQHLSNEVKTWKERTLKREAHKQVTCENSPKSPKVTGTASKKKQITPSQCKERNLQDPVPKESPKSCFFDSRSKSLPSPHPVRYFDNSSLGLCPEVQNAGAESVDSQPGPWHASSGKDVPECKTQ

[2] = target: T1, Centromere-associated protein E; assay: Inhibition of CENP-E (unknown origin) ATPase activity in presence 365 nm of light illumination
[3] = target: T1, Centromere-associated protein E; assay: Inhibition of CENP-E in human HeLa cells assessed as misaligned chromosome at 1 uM incubated for 2 hrs by DAPI staining based assay; format: cell-based

| SMILES | IC50 (HeLa) [µM] | IC50 [1] [µM] | IC50 [2] [µM] | inhibition [3] |
| --- | --- | --- | --- | --- |
| CNC(=O)[C@H](Cc1ccc(/N=N/c2c(C)nn(C3=NCCN3)c2C)cc1)NC(=O)c1ccc(OC(C)C)c(Cl)c1 | > 10 | 0.24 | 0.417 |  |
| CNC(=O)[C@H](Cc1ccc(/N=N/c2c(C)nn(C(C)=O)c2C)cc1)NC(=O)c1ccc(OC(C)C)c(Cl)c1 | > 10 | 0.209 | 0.245 |  |
| CNC(=O)[C@H](Cc1ccc(/N=N/c2c(C)nn(C(=N)N)c2C)cc1)NC(=O)c1ccc(OC(C)C)c(Cl)c1 | 10 | 0.245 | 0.151 |  |
| CNC(=O)[C@H](Cc1ccc(/N=N/c2c(C)nn(CCO)c2C)cc1)NC(=O)c1ccc(OC(C)C)c(Cl)c1 | 0.2 | 0.012 | 0.195 |  |
| CNC(=O)[C@H](Cc1ccc(/N=N/c2c(C)nn(-c3cccc4ccccc34)c2C)cc1)NC(=O)c1ccc(OC(C)C)c(Cl)c1 | 10 | < 0.501 | > 0.501 |  |
| CNC(=O)[C@H](Cc1ccc(/N=N/c2c(C)n[nH]c2C)cc1)NC(=O)c1ccc(OC(C)C)c(Cl)c1 | > 10 | > 0.501 | > 0.501 |  |
| CCCC(=O)n1nc(C)c(/N=N/c2ccc(C[C@H](NC(=O)c3ccc(OC(C)C)c(Cl)c3)C(=O)NC)cc2)c1C | 0.447 | 0.0339 | 0.0832 |  |
| CNC(=O)[C@H](Cc1ccc(/N=N/c2c(C)noc2C)cc1)NC(=O)c1ccc(OC(C)C)c(Cl)c1 | 0.38 | 0.02 | 0.166 |  |
| CNC(=O)[C@H](Cc1ccc(/N=N/c2c(C)nn(C(N)=S)c2C)cc1)NC(=O)c1ccc(OC(C)C)c(Cl)c1 | 10 | 0.145 | 0.0513 |  |
| CNC(=O)[C@H](Cc1ccc(/N=N/c2c(C)nn(-c3ccc(F)cc3F)c2C)cc1)NC(=O)c1ccc(OC(C)C)c(Cl)c1 | 10 | 0.339 | > 0.501 |  |
| CNC(=O)[C@H](Cc1ccc(/N=N/c2c(C)nn(C)c2C)cc1)NC(=O)c1ccc(OC(C)C)c(Cl)c1 | 0.191 | 0.0158 | 0.372 |  |
| CNC(=O)[C@H](Cc1ccc(/N=N/c2c(C)nn(C=O)c2C)cc1)NC(=O)c1ccc(OC(C)C)c(Cl)c1 | 0.55 | 0.123 | 0.12 |  |
| CNC(=O)[C@H](Cc1ccc(NN=C(C(C)=O)C(C)=O)cc1)NC(=O)c1ccc(OC(C)C)c(Cl)c1 |  |  |  | inactive |
| CNC(=O)[C@H](Cc1ccc(/N=N/c2c(C)nn(Cc3ccccc3)c2C)cc1)NC(=O)c1ccc(OC(C)C)c(Cl)c1 | > 10 | 0.204 | > 0.501 |  |
| CNC(=O)[C@H](Cc1ccc(/N=N/c2c(C)nn(-c3ccccn3)c2C)cc1)NC(=O)c1ccc(OC(C)C)c(Cl)c1 | 10 | 0.0933 | 0.162 |  |
| CNC(=O)[C@H](Cc1ccc(/N=N/c2c(C)nn(C3CCCCC3)c2C)cc1)NC(=O)c1ccc(OC(C)C)c(Cl)c1 |  | 0.105 | 0.0977 |  |
| CNC(=O)[C@H](Cc1ccc(/N=N/c2c(C)nn(C(=O)c3ccccc3)c2C)cc1)NC(=O)c1ccc(OC(C)C)c(Cl)c1 | > 10 | 0.204 | 0.129 |  |
| CNC(=O)[C@H](Cc1ccc(/N=N/c2c(C)nn(C(=O)OC)c2C)cc1)NC(=O)c1ccc(OC(C)C)c(Cl)c1 | > 10 | 0.38 | > 0.501 |  |
| CNC(=O)[C@H](Cc1ccc(/N=N/c2c(C)nn(C(C)C)c2C)cc1)NC(=O)c1ccc(OC(C)C)c(Cl)c1 | > 10 | 0.123 | 0.158 |  |
| CNC(=O)[C@H](Cc1ccc(/N=N/c2c(C)nn(C(N)=O)c2C)cc1)NC(=O)c1ccc(OC(C)C)c(Cl)c1 | 0.457 | 0.0151 | 0.129 |  |
